In US20230135029A1, “COMPOSITIONS AND METHODS FOR INCREASING DIGESTIBILITY OF CALCIUM AND PHOSPHOROUS IN PIGS” (Premex, Inc., priority 2020, published 2023):
Entries after “also recorded” stand apart in the source; their conditions may differ.

Tested on: late gestating sows
Assay: Calcium, phosphorus and energy balance / apparent total tract digestibility (ATTD) study in late gestating sows fed diets with supplemental 1-α-OH-D3
Type: in vivo, pig
Conditions: for ATTD of Ca / ATTD of Dry Matter / ATTD of P / ATTD of gross energy / Absorbed Ca / Absorbed P / Fecal Ca output / Fecal P output / Fecal excretion / Urine Ca output / Urine P output: 12.5 mg/kg diet; for fecal P output, in words / urine P output, in words: vs no supplement
Description: Thirty six gestating sows were allotted to three blocks of twelve sows using a randomized complete block design. Four diets were fed to the twelve sows in each block. Thus, there were a total of nine replicate sows per diet. Sows were fed experimental diets from day 91 to 105 of gestation and were housed individually in metabolism crates during this period. Metabolism crates were equipped with a feeder, a nipple drinker, and fully slatted T-bar floors. A screen floor and a urine pan were installed below the T-bar floors to allow for collection of feces and urine, respectively. The initial five days of each period in the metabolism crates were considered the adaptation period to the diets followed by four days of fecal collection using the marker to marker procedure (Adeola, O. 2001. Digestion and balance techniques in pigs. In: A. J. Lewis and L. L. Southern, editors, Swine Nutrition. CRC Press, Washington, D.C., USA. p. 903-916.). Fecal collection was initiated when the first marker (i.e., indigo carmine) appeared in the feces and ceased when the second marker (i.e., chromic oxide) appeared (Id.). Urine was collected in buckets placed under the urine pans with 50 mL of 3N HCl from day six in the morning until day ten in the morning. Buckets were emptied daily, the weight of the collected urine was recorded, and 10% of the collected urine was stored at −20° C. until subsampling.
Diets were formulated using a 2×2 factorial arrangement with two levels of calcium and phosphorus (i.e., 100% and 75% of the requirement; NRC, 2012) with a constant calcium to phosphorus ratio (See Table 1) without or with supplemental 1-α-OH-D3 (Alpha D3, Premex Inc., NC). The high level of calcium and phosphorus was 100% requirement for late gestation sows. The low level of calcium phosphorus was 75% of requirement for late gestation sows (NRC. 2012. Nutrient requirements of swine. 11th rev. ed. Natl. Acad. Press, Washington, D.C., USA). The corn-1-α-OH-D3 premix provided 12.5 mg Alpha D3 per kg of complete diet; 1,000 g of 1-α-OH-D3 premix was prepared by mixing 417 mg Alpha D3 and 999.583 g ground corn.
The vitamin-micromineral premix provided the following quantities of vitamins and micro minerals per kilogram of complete diet: vitamin A as retinyl acetate, 10,622 IU; vitamin D3 as cholecalciferol, 1,660 IU; vitamin E as […], 66 IU; vitamin K as menadione nicotinamide bisulfate, 1.40 mg; thiamin as thiamine mononitrate, 1.08 mg; riboflavin, 6.49 mg; pyridoxine as pyridoxine hydrochloride, 0.98 mg; vitamin B12, 0.03 mg; D-pantothenic acid as D-calcium pantothenate, 23.2 mg; niacin, 43.4 mg; folic acid, 1.56 mg; biotin, 0.44 mg; Cu, 20 mg as copper chloride; Fe, 123 mg as iron sulfate; I, 1.24 mg as ethylenediamine dihydriodide; Mn, 59.4 mg as manganese hydroxychloride; Se, 0.27 mg as sodium selenite and selenium yeast; and Zn, 124.7 mg as zinc hydroxychloride.
All vitamins and minerals except calcium and phosphorus were included in all diets to meet or exceed nutrient requirements (NRC, 2012). Daily feed allotments were provided in a meal that was fed at 7 AM throughout the experiment. The daily feed allowance was 1.5 times the maintenance energy requirement for gestating sows based on the initial body weight of sows (i.e., 100 kcal ME/kg BW0.75; NRC. 2012. Nutrient requirements of swine. 11th rev. ed. Natl. Acad. Press, Washington, D.C., USA). Water was available at all times.
At the conclusion of the testing, urine samples were thawed and mixed within animal and collection period and subsamples were collected. Fecal samples were stored at −20° C. as soon as collected, and at the conclusion of the experiment, samples were dried at 65° C. in a forced air oven and finely ground through a 1-mm screen before analysis using a Wiley mill (Model 4; Thomas Scientific, Swedesboro, N.J.). […]

[1] = high level of dietary calcium and phosphorus, P<0.05
[2] = low level of dietary calcium and phosphorus
[3] = supplemented vs no supplemental 1-α-OH-D3, main effect, P<0.01
[4] = supplemented vs no supplemental 1-α-OH-D3, regardless of dietary Ca and P levels, P<0.05

## C=C1/C(=C\C=C2/CCC[C@]3(C)[C@@H]([C@H](C)CCCC(C)C)CC[C@@H]23)C[C@@H](O)C[C@@H]1O [1-α-OH-D3, 1-alpha-hydroxycholecalciferol]
High Ca and P levels
  ATTD of Ca: 30.25%
  ATTD of Dry Matter: 87.72%
  ATTD of P: 34.7%
  ATTD of gross energy: 87.3%
  Absorbed Ca: 6.63 grams/day
  Absorbed P: 5.19 grams/day
  Fecal Ca output: 15.00 grams/day
  Fecal P output: 9.71 grams/day
  Fecal excretion: 0.32 kg dry matter/d
  Urine Ca output: 0.59 grams/day
  Urine P output: 0.99 grams/day
Low Ca and P levels
  ATTD of Ca: 30.49%
  ATTD of Dry Matter: 88.31%
  ATTD of P: 29.63%
  ATTD of gross energy: 87.5%
  Absorbed Ca: 4.66 grams/day
  Absorbed P: 3.16 grams/day
  Fecal Ca output: 10.89 grams/day
  Fecal P output: 7.67 grams/day
  Fecal excretion: 0.30 kg dry matter/d
  Urine Ca output: 0.99 grams/day
  Urine P output: 0.12 grams/day
[1]
  fecal P output, in words: decreased
  urine P output, in words: decreased
[2]
  fecal P output, in words: no difference
  urine P output, in words: no difference
Supplemented vs no supplemental 1-α-OH-D3, main effect
  ATTD of dry matter, in words: greater
Supplemented vs no supplemental 1-α-OH-D3, main effect over both Ca and P levels, P<0.05
  fecal excretion, in words: less
[3]
  ATTD of calcium, in words: greater; also recorded: increased
  ATTD of gross energy, in words: increases
  Fecal calcium output, in words: less
  absorbed calcium, in words: greater
  calcium retention, in words: greater; also recorded: increased
  concentration of digestible energy in diets, in words: increases
  urine calcium outputs, in words: increased
[4]
  ATTD of phosphorus, in words: greater; also recorded: increased
  absorbed phosphorus, in words: greater
  phosphorus retention, in words: greater; also recorded: increased
